According to patent US20230233615A1, “PHARMACEUTICAL COMPOSITION FOR TREATING ALZHEIMER'S DISEASE” (Gwo Xi Stem Cell Applied Technology Co., Ltd., priority 2022, published 2023):

Assays:
IL-18 = assay: Inhibition on NLRP3 by EVs, IL-18 in BV2 microglia cell line; assay type: cell-based; conditions: BV2 cells, LPS + ATP, 48 hours, 100 mM of mefenamic acid
Description: (§1) In order to investigate anti-inflammatory and NLR family pyrindomain containing 3 (NLRP3) inflammasome inhibitory effects of ADSC-derived EVs, a study was performed using a BV2 microglia cell line (hereinafter referred to as BV2 cells). BV2 cells were initiated with 100 ng/ml of LPS and 5 mM of ATP, and 100 mM of mefenamic acid (a positive control group) or a low dose of ADSC-derived EVs (2×10^5 particles/cell) or a high dose of ADSC-derived EVs (2×10^6 particles/cell) in a humidified environment with 5%CO2 at 37° C. for 48 hours.

IL-1β = assay: Inhibition on NLRP3 by EVs, IL-1β in BV2 microglia cell line; assay type: cell-based; conditions: BV2 cells, LPS + ATP, 48 hours, 100 mM of mefenamic acid
Description: as §1

Cc1cccc(Nc2ccccc2C(=O)O)c1C [mefenamic acid]
inhibited expression of IL-18 (compared to PBS group) (IL-18; first stated set): 29.2%
expression of IL-18 (compared to PBS group) (IL-18; second stated set): no significant change
inhibited expression of IL-1β (compared to PBS group) (IL-1β; first stated set): 35.4%
inhibited expression of IL-1β (compared to PBS group) (IL-1β; second stated set): 69.5%
